# Reference: publication PMC10681007, “Targeted Degradation of XIAP is Sufficient and Specific to Induce Apoptosis in MYCN-overexpressing High-risk Neuroblastoma” (Cancer Research Communications, 2023)
# Structures can show the parent of a compound that is named as a salt.
# Tests used:
# Format in all cases: cell-based, Human
# THLE3 and HS5 = assay: Toxicity and tolerability in noncancerous normal tissue-derived cell lines; conditions: THLE3 and HS5 versus neuroblastoma cells
# Experimental: (§1) Cell viability was measured in real time using RealTime-Glo MT Cell Viability Assay as according to manufacturer's instructions from Promega. Cells were seeded at 1 × 10^4 cells per well and treated with a range of doses of indicated antagonists, followed by continuous bioluminescence reading every 24 hours for 3 days using luminescent plate reader, Varioskan (SkanIT software). IC50 was determined using GraphPad Prism software.
# To evaluate this, noncancerous normal tissue-derived cell lines THLE3 and HS5 were utilized to evaluate toxicity and tolerability. […] On the basis of their overall potency and specificity toward neuroblastoma cells over noncancerous normal cells, A4, B3, and BV6 were selected as the more efficacious antagonists to be studied further in subsequent experiments (Fig. 2A).
# [1] = tested on: neuroblastoma cells across the panel of cell lines; assay: Cell viability, IC50 range across the panel; conditions: Homo sapiens, Neuroblastoma cell; range over cell lines, doses 0–100 µmol/L, viability every 24 for 72 hours; read-out: IC50 against neuroblastoma cells across the panel of cell lines
# Experimental: as §1, with “([…]” for “(SkanIT”, “software. To determine their efficacy in neuroblastoma, a panel of neuroblastoma cell lines including neuroblastoma patient-derived cell lines and noncancerous normal tissue-derived cell lines were treated with increasing doses of each antagonist (0-100 μmol/L), followed by real-time measurement of cell viability every 24 for 72 hours. […] Supplementary Table S2; Fig. 2A). […] Fig. 2A).” for “software.”
# SK-N-AS [2] = assay: RealTime-Glo MT cell viability assay; conditions: Homo sapiens
# Experimental: as §1
# (§2) To determine their efficacy in neuroblastoma, a panel of neuroblastoma cell lines including neuroblastoma patient-derived cell lines and noncancerous normal tissue-derived cell lines were treated with increasing doses of each antagonist (0–100 µmol/L), followed by real-time measurement of cell viability every 24 for 72 hours.
# NB1 = assay: RealTime-Glo MT cell viability assay; conditions: Homo sapiens
# Experimental: as §1, §2
# [3] = tested on: NBL16-0118 patient-derived neuroblastoma cells; assay: RealTime-Glo MT cell viability assay; conditions: Homo sapiens, Neuroblastoma cell
# Experimental: as §1, §2
# CHP212 = assay: RealTime-Glo MT cell viability assay; conditions: Homo sapiens, CHP-212
# Experimental: as §1, §2
# NLF = assay: RealTime-Glo MT cell viability assay; conditions: Homo sapiens
# Experimental: as §1, §2
# [4] = tested on: NBL27-0218A patient-derived neuroblastoma cells; assay: RealTime-Glo MT cell viability assay; conditions: Homo sapiens, Neuroblastoma cell
# Experimental: as §1, §2
# KELLY [5] = assay: RealTime-Glo MT cell viability assay; conditions: Homo sapiens
# Experimental: as §1, §2
# [6] = tested on: NBL-07-0317 patient-derived neuroblastoma cells; assay: RealTime-Glo MT cell viability assay; conditions: Homo sapiens, Neuroblastoma cell
# Experimental: as §1, §2
# [7] = tested on: NBL01-1116 patient-derived neuroblastoma cells; assay: RealTime-Glo MT cell viability assay; conditions: Homo sapiens, Neuroblastoma cell
# Experimental: as §1, §2
# IMR-32 = assay: RealTime-Glo MT cell viability assay; conditions: Homo sapiens
# Experimental: as §1, §2
# SK-N-SH = assay: RealTime-Glo MT cell viability assay; conditions: Homo sapiens
# Experimental: as §1, §2
# BE(2)-C [8] = assay: RealTime-Glo MT cell viability assay; conditions: Homo sapiens
# Experimental: as §1, §2
# THLE3 (liver origin) = assay: RealTime-Glo MT cell viability assay, noncancerous normal cells; conditions: Homo sapiens
# Experimental: as §1, §2
# (§3) To evaluate this, noncancerous normal tissue-derived cell lines THLE3 and HS5 were utilized to evaluate toxicity and tolerability.
# HS5 (bone marrow origin) = assay: as above; conditions: Homo sapiens
# Experimental: as §1, §2, §3
# KELLY [9] = assay: Drug interactions assay (Chou-Talalay CI, DRI); conditions: 48 hours
# Experimental: (§4) Drug interactions between XIAP-specific antagonist A4 and vincristine or topotecan were determined using the combination index (CI) by Chou and Talalay which was established on the basis of the mass-action law principle to derive the median-effect equation ([25]). […] Cell viability was measured and CI and dose reduction index (DRI) values were quantified using the CompuSyn software by Chou–Talalay. Areas under the dose–response curves were calculated using the trapezoidal method and compared using paired t test.
# (§5) For treatment of high-risk neuroblastoma, current standard-of-care utilizes intensive multimodal therapy involving combinations of multiple cytotoxic agents. […] To analyze potential drug interactions, treatment of BE(2)-C and KELLY cells with A4 in combination with either vincristine or topotecan was examined. Using Chou–Talalay method, the drug interaction effect/type determined by the drug combination (CI) index is as follows: CI <1 (synergistic effect); CI = 1 (additive effect); CI >1 (antagonistic effect).
# (§6) CI was generated using CompuSyn software by Chou–Talalay ([25]). CI60–90 represents the average CI at 60%–90% cell death. CI <1 denotes synergistic effect; CI = 1 denotes addictive effect and CI >1 denotes antagonistic effect. […] DRI was generated using CompuSyn software by Chou–Talalay. DRI60–90 represents the average DRI at 60%–90% cell death. DRI <1 denotes unfavorable dose reduction and DRI >1 denotes favorable dose reduction.
# BE(2)-C [10] = assay: Drug interactions assay (Chou-Talalay CI, DRI); conditions: 48 hours
# Experimental: as §4, §5, §6
# SK-N-AS [11] = assay: Drug interactions assay (Chou-Talalay); conditions: in combination with A4
# Experimental: as §4
# DRI <1 denotes unfavorable dose reduction and DRI >1 denotes favorable dose reduction.
smiles,measurement,setting,value
CN[C@@H](C)C(=O)N[C@H](C(=O)N1CCC[C@H]1c1nc(C(=O)c2ccc(F)cc2)cs1)C1CCCCC1 [LCL161],toxicity to noncancerous cells,THLE3 and HS5,more toxic toward noncancerous cells than neuroblastoma cells
same,IC50,[1],20 to 60 µM
same,IC50,SK-N-AS [2]; 24 hours,34 µM
same,IC50,SK-N-AS [2]; 48 hours,22.5 µM
same,IC50,SK-N-AS [2]; 72 hours,15.7 µM
same,IC50,"NB1; NB1, 24 hours",> 60 µM
same,IC50,"NB1; NB1, 48 hours",46.5 µM
same,IC50,"NB1; NB1, 72 hours",27.4 µM
same,IC50,"[3]; NBL16-0118, 24 hours",34 µM
same,IC50,"[3]; NBL16-0118, 48 hours",27.5 µM
same,IC50,"[3]; NBL16-0118, 72 hours",22.5 µM
same,IC50,"CHP212; CHP212, 24 hours",42 µM
same,IC50,"CHP212; CHP212, 48 hours",33 µM
same,IC50,"CHP212; CHP212, 72 hours",31.2 µM
same,IC50,NLF; 24 hours,32.8 µM
same,IC50,NLF; 48 hours,30.2 µM
same,IC50,NLF; 72 hours,28.5 µM
same,IC50,[4]; 24 hours,39 µM
same,IC50,[4]; 48 hours,32.5 µM
same,IC50,[4]; 72 hours,28.5 µM
same,IC50,KELLY [5]; 24 hours,48.2 µM
same,IC50,KELLY [5]; 48 hours,27.6 µM
same,IC50,KELLY [5]; 72 hours,21.2 µM
same,IC50,"[6]; NBL-07-0317, 24 hours",33.6 µM
same,IC50,"[6]; NBL-07-0317, 48 hours",31.8 µM
same,IC50,"[6]; NBL-07-0317, 72 hours",30 µM
same,IC50,"[7]; NBL01-1116, 24 hours",42 µM
same,IC50,"[7]; NBL01-1116, 48 hours",36.4 µM
same,IC50,"[7]; NBL01-1116, 72 hours",36 µM
same,IC50,"IMR-32; IMR-32, 24 hours",> 60 µM
same,IC50,"IMR-32; IMR-32, 48 hours",30 µM
same,IC50,"IMR-32; IMR-32, 72 hours",19 µM
same,IC50,SK-N-SH; 24 hours,55.4 µM
same,IC50,SK-N-SH; 48 hours,44 µM
same,IC50,SK-N-SH; 72 hours,33 µM
same,IC50,BE(2)-C [8]; 24 hours,> 60 µM
same,IC50,BE(2)-C [8]; 48 hours,42.5 µM
same,IC50,BE(2)-C [8]; 72 hours,32.5 µM
same,IC50,"THLE3 (liver origin); THLE3, 24 hours",> 60 µM
same,IC50,"THLE3 (liver origin); THLE3, 48 hours",24 µM
same,IC50,"THLE3 (liver origin); THLE3, 72 hours",14.5 µM
same,IC50,"HS5 (bone marrow origin); HS5, 24 hours",30 µM
same,IC50,"HS5 (bone marrow origin); HS5, 48 hours",18 µM
same,IC50,"HS5 (bone marrow origin); HS5, 72 hours",15.5 µM
"CC[C@@]1(O)C(=O)OCc2c1cc1n(c2=O)Cc2cc3c(CN(C)C)c(O)ccc3nc2-1 [Topotecan, Topotecan hydrochloride]",AUC of dose–response curve,KELLY [9]; topotecan dose axis,352.1±28.9 nM* luminescence
same,AUC of dose–response curve,BE(2)-C [10]; topotecan dose axis,164.6±8.6 nM* luminescence
"CC[C@]1(O)C[C@H]2CN(CCc3c([nH]c4ccccc34)[C@@](C(=O)OC)(c3cc4c(cc3OC)N(C=O)[C@H]3[C@@](O)(C(=O)OC)[C@H](OC(C)=O)[C@]5(CC)C=CCN6CC[C@]43[C@@H]65)C2)C1 [Vincristine, Vincristine sulfate]",drug interaction with A4,SK-N-AS [11],only additive effect
same,AUC of dose–response curve,KELLY [9]; vincristine dose axis,37.5±3.9 pM* luminescence
same,AUC of dose–response curve,BE(2)-C [10]; vincristine dose axis,9.8±0.2 pM* luminescence
